These results are taken from patent publication US20080058272A1, “Nonamer Peptides for Cancer Treatment” (priority 2006, published 2008).

This assay relates to PBMC of melanoma patients. The assay can be described thus: Flow cytometry with HLA-A2/FAPα peptide multimers after in vitro stimulation. The class given is cell-based, human. On the procedure:
The human HLA-A*0201-positive cell lines T2, a TAP-deficient T cell leukemia/B cell line hybrid and JY, a B-LCL were cultured in RPMI 1640 supplemented with 10% heat inactivated FCS. After informed consent peripheral blood lymphocytes (PBLs) were collected from HLA-A2-positive patients with advanced malignant melanoma. PBLs from HLA-A2-positive healthy individuals were used as controls. PBLs were isolated using Lymphoprep separation (Axis-Shield PoC AS, Oslo, Norway) according to the manufacturer's instructions and used directly or frozen in FCS with 10% DMSO. PBL were cultured in RPMI/10% human AB serum. Dendritic cells (DCs) were generated from PBMC by adherence on culture dishes at 37° C. for 60 minutes in RPMI enriched with 10% human AB serum. […]
After peptide-specific stimulation with FAPα peptides or with FAPα mRNA transfected DC, generated as described previously (Fassnacht et al. 2005) PBLs were stained with HLA-A2/FAPα peptide FITC-labeled multimers (a kind gift of Jorgen Scholler, Dako, Glostrup, Denmark) in PBS/0.1% BSA/FCS for 30 min in the dark, followed by staining with anti-CD8-PE (Dako, Glostrup, Denmark) for 30 min at 4° C. in the dark. Samples were analyzed on BD FACS Canto (Becton Dickinson, Heidelberg, Germany) using WinMDi or FCS Express V3.
For orientation: In flow cytometry, cells or beads pass a laser one at a time.

Turning to “GLFKCGIAV (listed as Homo sapiens) [FAPα^639-647]”, the “detection of HLA-A2/FAPα^639-647 specific T cells” value is recorded as “able to detect” (after in vitro stimulation with FAPα peptide-loaded dendritic cells) and “can be detected” (after stimulation with DCs transfected with FAPα mRNA).
